Measured values reported in ChEMBL document CHEMBL1135380, “Synthesis and structure-activity relationship of 2-(aminoalkyl)-2,3,3a,8-tetrahydrodibenzo[c,f]isoxazolo[2,3-a]azepine derivatives: a novel series of 5-HT(2A/2C) receptor antagonists. Part 1” (Bioorg Med Chem Lett, 2002).

Assays:
[1] = test system: Rattus norvegicus; assay: In vivo activity in mCPP challenge test were performed in male Wistar rats by subcutaneous administration; type: functional; settings: Rattus norvegicus, sc; read-out: ED50
[2] = target: D(2) dopamine receptor (Homo sapiens, UniProt P14416); assay: Binding affinity for human cloned Dopamine receptor D2L
[3] = target: 5-hydroxytryptamine receptor 1D (Homo sapiens, UniProt P28221); assay: Binding affinity for human cloned 5-hydroxytryptamine 1D receptor
[4] = target: T1, 5-hydroxytryptamine receptor 2C (Homo sapiens, UniProt P28335); assay: Binding affinity for human cloned 5-hydroxytryptamine 2C receptor expressed in CHO cells using [3H]mesulergine as radioligand; type: cell-based
T1 sequence (P28335 whole entry): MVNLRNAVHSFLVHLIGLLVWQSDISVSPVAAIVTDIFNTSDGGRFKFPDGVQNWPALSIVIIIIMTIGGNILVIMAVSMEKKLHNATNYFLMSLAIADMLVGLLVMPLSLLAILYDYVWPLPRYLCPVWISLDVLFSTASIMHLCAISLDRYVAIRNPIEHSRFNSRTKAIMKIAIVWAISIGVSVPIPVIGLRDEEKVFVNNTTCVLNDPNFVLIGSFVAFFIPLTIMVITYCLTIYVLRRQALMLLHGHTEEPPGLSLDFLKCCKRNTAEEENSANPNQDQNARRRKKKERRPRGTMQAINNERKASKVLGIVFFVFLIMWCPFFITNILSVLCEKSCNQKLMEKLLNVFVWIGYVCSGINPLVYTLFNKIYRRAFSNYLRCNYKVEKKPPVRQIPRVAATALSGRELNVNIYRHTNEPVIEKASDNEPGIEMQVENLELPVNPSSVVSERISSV

[5] = target: Histamine H1 receptor (Homo sapiens, UniProt P35367); assay: Binding affinity for human cloned Histamine H1 receptor expressed in CHO cells using [3H]pyrilamine as radioligand; type: cell-based
[6] = target: T2, 5-hydroxytryptamine receptor 1A (Homo sapiens, UniProt P08908); assay: Binding affinity for human cloned 5-hydroxytryptamine 1A receptor
T2 sequence (P08908 whole entry): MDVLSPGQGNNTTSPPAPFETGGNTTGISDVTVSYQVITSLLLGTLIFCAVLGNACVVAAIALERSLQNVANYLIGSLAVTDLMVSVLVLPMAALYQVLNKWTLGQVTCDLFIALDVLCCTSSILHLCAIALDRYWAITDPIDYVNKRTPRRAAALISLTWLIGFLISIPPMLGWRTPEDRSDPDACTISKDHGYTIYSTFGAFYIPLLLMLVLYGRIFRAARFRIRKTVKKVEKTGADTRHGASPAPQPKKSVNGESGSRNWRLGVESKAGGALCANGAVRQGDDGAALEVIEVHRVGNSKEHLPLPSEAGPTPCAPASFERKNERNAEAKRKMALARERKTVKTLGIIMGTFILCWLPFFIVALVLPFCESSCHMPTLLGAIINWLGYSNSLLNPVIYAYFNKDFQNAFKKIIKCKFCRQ

[7] = target: D(3) dopamine receptor (Homo sapiens, UniProt P35462); assay: Binding affinity for human cloned Dopamine receptor D3
[8] = target: T3, Alpha-2A adrenergic receptor (Homo sapiens, UniProt P08913); assay: Binding affinity for human cloned Alpha-2A adrenergic receptor
T3 sequence (P08913 whole entry): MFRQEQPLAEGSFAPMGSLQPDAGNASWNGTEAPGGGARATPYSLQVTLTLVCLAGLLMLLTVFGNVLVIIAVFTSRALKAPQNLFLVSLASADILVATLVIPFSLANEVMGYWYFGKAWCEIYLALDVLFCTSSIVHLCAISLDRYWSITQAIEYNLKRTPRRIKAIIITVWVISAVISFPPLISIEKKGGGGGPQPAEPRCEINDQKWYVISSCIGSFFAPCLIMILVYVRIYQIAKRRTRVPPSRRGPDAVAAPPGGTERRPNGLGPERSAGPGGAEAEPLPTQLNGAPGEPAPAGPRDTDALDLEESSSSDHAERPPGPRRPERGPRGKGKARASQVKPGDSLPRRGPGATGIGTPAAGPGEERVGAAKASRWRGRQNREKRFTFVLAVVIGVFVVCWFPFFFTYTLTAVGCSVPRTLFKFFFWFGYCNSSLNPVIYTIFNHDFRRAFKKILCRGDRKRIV

[9] = target: Serotonin 3 (5-HT3) receptor; assay: Binding affinity for human cloned 5-hydroxytryptamine 3 receptor; type: protein-complex assay
[10] = target: T4, Alpha-1A adrenergic receptor (Homo sapiens, UniProt P35348); assay: Binding affinity for human cloned Alpha-1A adrenergic receptor
T4 sequence (P35348 whole entry): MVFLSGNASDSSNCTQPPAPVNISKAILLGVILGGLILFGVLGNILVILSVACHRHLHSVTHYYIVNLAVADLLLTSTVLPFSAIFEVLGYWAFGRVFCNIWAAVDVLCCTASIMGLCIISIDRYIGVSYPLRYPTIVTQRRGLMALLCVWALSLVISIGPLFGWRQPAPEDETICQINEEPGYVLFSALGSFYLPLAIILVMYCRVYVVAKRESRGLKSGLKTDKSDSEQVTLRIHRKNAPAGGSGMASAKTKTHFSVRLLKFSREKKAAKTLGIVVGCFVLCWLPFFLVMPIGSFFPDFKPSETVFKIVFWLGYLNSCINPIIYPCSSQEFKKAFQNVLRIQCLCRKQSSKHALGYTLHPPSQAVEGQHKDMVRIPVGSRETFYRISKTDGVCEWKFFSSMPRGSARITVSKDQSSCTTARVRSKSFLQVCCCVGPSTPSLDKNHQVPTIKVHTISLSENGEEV

[11] = target: 5-hydroxytryptamine receptor 7 (Homo sapiens, UniProt P34969); assay: Binding affinity for human cloned 5-hydroxytryptamine 7 receptor
[12] = target: T5, 5-hydroxytryptamine receptor 2C (Rattus norvegicus) (UniProt P08909); assay: In vivo activity in rat mCPP challenge test following p.o. administration.; type: functional, organism-based
T5 sequence (whole entry): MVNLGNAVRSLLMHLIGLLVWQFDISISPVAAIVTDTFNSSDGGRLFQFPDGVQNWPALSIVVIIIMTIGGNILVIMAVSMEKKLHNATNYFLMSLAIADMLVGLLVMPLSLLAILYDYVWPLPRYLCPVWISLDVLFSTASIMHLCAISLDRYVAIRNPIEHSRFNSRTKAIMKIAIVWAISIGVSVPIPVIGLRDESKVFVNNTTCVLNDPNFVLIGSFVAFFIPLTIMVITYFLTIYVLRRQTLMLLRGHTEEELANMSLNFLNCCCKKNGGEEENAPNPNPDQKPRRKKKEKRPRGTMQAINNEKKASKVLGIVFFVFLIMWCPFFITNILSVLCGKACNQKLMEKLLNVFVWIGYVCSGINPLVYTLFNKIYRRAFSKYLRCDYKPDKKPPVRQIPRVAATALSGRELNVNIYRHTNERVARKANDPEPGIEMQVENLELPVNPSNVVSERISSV

[13] = target: T6, D(4) dopamine receptor (Homo sapiens, UniProt P21917); assay: Binding affinity for human cloned Dopamine receptor D4
T6 sequence (P21917 whole entry): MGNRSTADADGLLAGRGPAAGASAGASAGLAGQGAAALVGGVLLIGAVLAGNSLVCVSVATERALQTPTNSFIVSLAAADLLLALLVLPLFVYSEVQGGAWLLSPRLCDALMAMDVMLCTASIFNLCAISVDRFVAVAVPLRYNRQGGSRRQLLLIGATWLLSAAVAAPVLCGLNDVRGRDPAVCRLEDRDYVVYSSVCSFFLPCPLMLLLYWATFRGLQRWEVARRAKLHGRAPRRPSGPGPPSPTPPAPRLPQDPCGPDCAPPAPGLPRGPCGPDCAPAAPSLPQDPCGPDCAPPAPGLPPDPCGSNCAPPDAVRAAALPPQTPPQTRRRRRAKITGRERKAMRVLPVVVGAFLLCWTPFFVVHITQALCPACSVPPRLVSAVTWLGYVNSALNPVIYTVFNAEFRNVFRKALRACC

[14] = target: 5-hydroxytryptamine receptor 2A (Homo sapiens, UniProt P28223); assay: biochemical; type: cell-based, L929
Description: Binding affinity for human cloned 5-hydroxytryptamine 2A receptor expressed in L929 cells using [125I]R91150 as radioligand

[15] = target: T7, Alpha-2C adrenergic receptor (Homo sapiens, UniProt P18825); assay: Binding affinity for human cloned Alpha-2C adrenergic receptor
T7 sequence (P18825 whole entry): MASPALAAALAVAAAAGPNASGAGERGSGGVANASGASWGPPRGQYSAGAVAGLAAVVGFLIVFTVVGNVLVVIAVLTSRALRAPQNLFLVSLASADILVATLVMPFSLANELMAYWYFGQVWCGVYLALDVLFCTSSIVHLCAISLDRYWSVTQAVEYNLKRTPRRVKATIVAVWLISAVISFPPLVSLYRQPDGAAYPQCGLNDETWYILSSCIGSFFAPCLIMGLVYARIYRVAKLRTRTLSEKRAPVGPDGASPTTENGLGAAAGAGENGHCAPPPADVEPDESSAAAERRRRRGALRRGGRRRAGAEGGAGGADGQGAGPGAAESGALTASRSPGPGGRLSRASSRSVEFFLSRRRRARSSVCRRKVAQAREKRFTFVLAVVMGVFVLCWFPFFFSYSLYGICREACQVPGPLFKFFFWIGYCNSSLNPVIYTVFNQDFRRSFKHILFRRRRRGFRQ

Chain of 5-hydroxytryptamine receptor 1D (P28221 whole entry): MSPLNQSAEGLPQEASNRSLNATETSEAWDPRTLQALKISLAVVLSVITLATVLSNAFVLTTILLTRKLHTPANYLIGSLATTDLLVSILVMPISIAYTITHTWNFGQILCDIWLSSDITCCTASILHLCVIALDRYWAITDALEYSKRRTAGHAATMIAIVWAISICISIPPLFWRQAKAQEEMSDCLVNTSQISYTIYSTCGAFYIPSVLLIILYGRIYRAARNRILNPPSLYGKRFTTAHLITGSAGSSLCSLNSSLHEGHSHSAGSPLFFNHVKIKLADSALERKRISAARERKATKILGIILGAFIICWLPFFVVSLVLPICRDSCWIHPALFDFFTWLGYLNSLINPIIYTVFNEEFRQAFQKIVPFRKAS
Chain of 5-hydroxytryptamine receptor 2A (P28223 whole entry): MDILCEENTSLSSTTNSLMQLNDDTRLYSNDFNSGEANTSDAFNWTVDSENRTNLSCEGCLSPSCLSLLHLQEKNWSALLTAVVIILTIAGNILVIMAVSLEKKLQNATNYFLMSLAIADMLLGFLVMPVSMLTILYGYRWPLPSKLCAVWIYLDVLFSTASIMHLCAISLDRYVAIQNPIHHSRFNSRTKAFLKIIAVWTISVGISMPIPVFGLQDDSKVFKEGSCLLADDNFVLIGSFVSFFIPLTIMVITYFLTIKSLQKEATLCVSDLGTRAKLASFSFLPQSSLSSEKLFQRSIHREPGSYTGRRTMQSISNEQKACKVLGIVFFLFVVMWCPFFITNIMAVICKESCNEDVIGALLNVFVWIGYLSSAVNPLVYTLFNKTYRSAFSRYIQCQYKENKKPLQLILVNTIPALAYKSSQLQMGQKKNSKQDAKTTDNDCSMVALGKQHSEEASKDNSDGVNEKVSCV
Chain of Histamine H1 receptor (P35367 whole entry): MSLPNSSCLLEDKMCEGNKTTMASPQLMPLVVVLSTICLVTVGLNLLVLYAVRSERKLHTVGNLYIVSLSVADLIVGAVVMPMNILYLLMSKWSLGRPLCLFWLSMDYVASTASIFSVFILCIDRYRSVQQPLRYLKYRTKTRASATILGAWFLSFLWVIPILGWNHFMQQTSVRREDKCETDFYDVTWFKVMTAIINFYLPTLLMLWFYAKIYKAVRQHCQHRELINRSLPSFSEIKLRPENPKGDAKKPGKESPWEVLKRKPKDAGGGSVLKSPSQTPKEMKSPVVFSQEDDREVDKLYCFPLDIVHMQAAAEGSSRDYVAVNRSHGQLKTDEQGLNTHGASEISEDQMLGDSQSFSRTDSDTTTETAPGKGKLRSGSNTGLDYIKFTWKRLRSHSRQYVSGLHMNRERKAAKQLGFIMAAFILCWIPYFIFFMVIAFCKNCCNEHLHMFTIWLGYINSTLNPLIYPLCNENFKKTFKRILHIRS
Chain of 5-hydroxytryptamine receptor 7 (P34969 whole entry): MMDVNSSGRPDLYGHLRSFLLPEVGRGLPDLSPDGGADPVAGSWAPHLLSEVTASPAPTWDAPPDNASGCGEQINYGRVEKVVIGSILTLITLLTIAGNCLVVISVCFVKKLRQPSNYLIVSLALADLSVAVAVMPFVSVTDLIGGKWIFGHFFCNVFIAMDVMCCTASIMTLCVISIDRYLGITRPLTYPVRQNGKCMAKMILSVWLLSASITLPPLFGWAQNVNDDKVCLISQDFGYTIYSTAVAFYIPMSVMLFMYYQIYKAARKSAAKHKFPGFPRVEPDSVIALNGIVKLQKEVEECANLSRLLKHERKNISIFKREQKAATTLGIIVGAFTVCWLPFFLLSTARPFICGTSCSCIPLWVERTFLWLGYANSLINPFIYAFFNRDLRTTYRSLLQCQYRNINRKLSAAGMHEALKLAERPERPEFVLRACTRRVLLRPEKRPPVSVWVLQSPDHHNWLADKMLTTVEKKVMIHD
Chain of D(2) dopamine receptor (P14416 whole entry): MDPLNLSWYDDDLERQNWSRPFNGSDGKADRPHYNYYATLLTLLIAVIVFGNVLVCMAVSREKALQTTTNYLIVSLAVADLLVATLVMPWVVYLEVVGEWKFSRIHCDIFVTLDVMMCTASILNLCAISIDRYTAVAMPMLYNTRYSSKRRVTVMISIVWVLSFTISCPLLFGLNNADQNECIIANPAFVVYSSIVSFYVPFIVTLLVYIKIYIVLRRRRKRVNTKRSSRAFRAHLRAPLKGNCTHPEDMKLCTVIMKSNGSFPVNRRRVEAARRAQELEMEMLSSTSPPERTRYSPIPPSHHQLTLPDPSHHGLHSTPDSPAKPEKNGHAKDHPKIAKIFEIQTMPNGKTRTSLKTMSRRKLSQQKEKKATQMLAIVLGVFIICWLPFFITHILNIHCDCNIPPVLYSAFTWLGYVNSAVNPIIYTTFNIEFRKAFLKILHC
Chain of D(3) dopamine receptor (P35462 whole entry): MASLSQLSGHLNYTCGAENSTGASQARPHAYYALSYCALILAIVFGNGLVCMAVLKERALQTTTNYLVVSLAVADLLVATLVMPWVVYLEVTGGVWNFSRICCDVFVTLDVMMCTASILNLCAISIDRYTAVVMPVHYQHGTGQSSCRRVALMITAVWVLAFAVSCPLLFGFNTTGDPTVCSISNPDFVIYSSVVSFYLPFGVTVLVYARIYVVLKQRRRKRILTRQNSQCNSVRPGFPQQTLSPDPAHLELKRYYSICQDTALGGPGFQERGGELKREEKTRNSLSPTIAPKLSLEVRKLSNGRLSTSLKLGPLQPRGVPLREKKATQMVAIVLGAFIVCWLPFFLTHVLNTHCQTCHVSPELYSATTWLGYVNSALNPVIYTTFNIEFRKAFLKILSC

## CNCC1CC2c3ccccc3Cc3ccccc3N2O1 (stereo not given)
[1]
  ED50: 0.16 mg/kg
[2]
  IC50: 1700 nM
[3]
  IC50: > 1000 nM
[4]
  IC50: 7.08 nM
[5]
  IC50: 10.7 nM
[6]
  IC50: > 1000 nM
[7]
  IC50: 339 nM
[8]
  IC50: 437 nM
[9]
  pIC50: < 6
[10]
  IC50: 191 nM
[11]
  IC50: 18.6 nM
[12]
  ED50: > 2.5 mg/kg
[13]
  IC50: 302 nM
[14]
  IC50: 13.2 nM
[15]
  IC50: > 1000 nM
